# In PMC12136187, “A Full-Spectrum Generative Lead Discovery (FSGLD) Pipeline via DRUG-GAN: A Multiscale Method for Drug-like/Target-specific Compound Library Generation” (Research Square, 2025):
# Molecular target: T1, CB2 receptor (cannabinoid receptor 2) (Homo sapiens, UniProt P34972)
# T1 construct: gene CNR2
# Assay: radioligand binding assay, dose-response
# T1 sequence (P34972 whole entry): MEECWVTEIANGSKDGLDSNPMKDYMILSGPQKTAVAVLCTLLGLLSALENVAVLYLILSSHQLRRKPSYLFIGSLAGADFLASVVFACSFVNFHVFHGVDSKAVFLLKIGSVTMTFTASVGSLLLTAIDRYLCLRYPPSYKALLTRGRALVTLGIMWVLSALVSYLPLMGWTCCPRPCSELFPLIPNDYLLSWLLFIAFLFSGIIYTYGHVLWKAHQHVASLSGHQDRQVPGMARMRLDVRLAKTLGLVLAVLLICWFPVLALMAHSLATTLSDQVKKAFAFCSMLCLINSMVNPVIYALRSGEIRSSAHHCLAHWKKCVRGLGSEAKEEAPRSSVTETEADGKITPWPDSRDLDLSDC
compound,measurement,value
CCCn1c(C)c(C(=O)NCC(=O)N2CCCCC2)c2cc(OC)ccc21 [ZINC77179032],Ki,3.77 µM
